Source: the NIST ThermoML archive (doi:10.1016/j.tca.2009.07.002)
± gives the expanded uncertainty stated by the source.

Experiments:
[1] = 101 kPa, Liquid, Vibrating tube method
[2] = xn = mol fraction of the nth substance listed; conditions: 101 kPa, Liquid, Vibrating tube method

Which mass density ([1]; 288.15 K) does the source give for `CCCCCCC` [heptane] here?
Its mass density is 687.954 ± 0.23 kg/m3.

And the mass density ([1]; 293.15 K)?
The mass density was 683.733 ± 0.23 kg/m3.

What about the mass density ([1]; 298.15 K) of the same compound?
Its mass density is 679.494 ± 0.23 kg/m3.

And the mass density ([1]; 303.15 K)?
The mass density was 675.229 ± 0.24 kg/m3.

And the mass density ([1]; 308.15 K)?
Its mass density is 670.941 ± 0.24 kg/m3.

What about the mass density ([1]; 313.15 K) of the same compound?
The mass density was 666.621 ± 0.24 kg/m3.

What about the mass density ([1]; 318.15 K) of the same compound?
Its mass density is 662.273 ± 0.24 kg/m3.

And the mass density ([1]; 323.15 K)?
The mass density was 657.896 ± 0.24 kg/m3.

With `NC1CCCCC1` [cyclohexylamine] as the compound, how does the mass density ([1]; 288.15 K) read?
The mass density was 871.29 ± 0.3 kg/m3.

And the mass density ([1]; 293.15 K)?
The mass density was 866.747 ± 0.3 kg/m3.

What about the mass density ([1]; 298.15 K) of the same compound?
Its mass density is 862.207 ± 0.3 kg/m3.

And the mass density ([1]; 303.15 K)?
Its mass density is 857.671 ± 0.3 kg/m3.

And the mass density ([1]; 308.15 K)?
Its mass density is 853.138 ± 0.3 kg/m3.

And the mass density ([1]; 313.15 K)?
Its mass density is 848.607 ± 0.3 kg/m3.

What about the mass density ([1]; 318.15 K) of the same compound?
The mass density was 844.073 ± 0.3 kg/m3.

And the mass density ([1]; 323.15 K)?
Its mass density is 839.547 ± 0.3 kg/m3.

With `CCCCO` [butan-1-ol] as the compound, how does the mass density ([1]; 288.15 K) read?
Its mass density is 813.373 ± 0.18 kg/m3.

And the mass density ([1]; 293.15 K)?
The mass density was 809.573 ± 0.18 kg/m3.

And the mass density ([1]; 298.15 K)?
The mass density was 805.762 ± 0.18 kg/m3.

What about the mass density ([1]; 303.15 K) of the same compound?
The mass density was 801.923 ± 0.18 kg/m3.

And the mass density ([1]; 308.15 K)?
Its mass density is 798.053 ± 0.19 kg/m3.

What about the mass density ([1]; 313.15 K) of the same compound?
The mass density was 794.147 ± 0.19 kg/m3.

What about the mass density ([1]; 318.15 K) of the same compound?
Its mass density is 790.231 ± 0.19 kg/m3.

And the mass density ([1]; 323.15 K)?
Its mass density is 786.238 ± 0.19 kg/m3.

For `CCCCCCC` [heptane] + CCCCO, which mass density ([2]; 288.15 K, x2 = 0) is on record?
The mass density was 687.954 ± 0.23 kg/m3.

And the mass density ([2]; 293.15 K, x2 = 0)?
Its mass density is 683.733 ± 0.23 kg/m3.

What about the mass density ([2]; 298.15 K, x2 = 0) of the same compound?
Its mass density is 679.494 ± 0.23 kg/m3.

What about the mass density ([2]; 303.15 K, x2 = 0) of the same compound?
The mass density was 675.229 ± 0.24 kg/m3.

What about the mass density ([2]; 308.15 K, x2 = 0) of the same compound?
Its mass density is 670.941 ± 0.24 kg/m3.

And the mass density ([2]; 313.15 K, x2 = 0)?
The mass density was 666.621 ± 0.24 kg/m3.

And the mass density ([2]; 318.15 K, x2 = 0)?
Its mass density is 662.273 ± 0.24 kg/m3.

And the mass density ([2]; 323.15 K, x2 = 0)?
The mass density was 657.896 ± 0.24 kg/m3.

For `CCCCO` [butan-1-ol] + NC1CCCCC1, which mass density ([2]; 288.15 K, x1 = 1) is on record?
The mass density was 813.373 ± 0.18 kg/m3.

What about the mass density ([2]; 293.15 K, x1 = 1) of the same compound?
The mass density was 809.573 ± 0.18 kg/m3.

What about the mass density ([2]; 298.15 K, x1 = 1) of the same compound?
Its mass density is 805.762 ± 0.18 kg/m3.

And the mass density ([2]; 303.15 K, x1 = 1)?
The mass density was 801.923 ± 0.18 kg/m3.

And the mass density ([2]; 308.15 K, x1 = 1)?
Its mass density is 798.053 ± 0.19 kg/m3.

And the mass density ([2]; 313.15 K, x1 = 1)?
The mass density was 794.147 ± 0.19 kg/m3.

What about the mass density ([2]; 318.15 K, x1 = 1) of the same compound?
The mass density was 790.231 ± 0.19 kg/m3.

What about the mass density ([2]; 323.15 K, x1 = 1) of the same compound?
Its mass density is 786.238 ± 0.19 kg/m3.

Which results are given for `CCCCCCC` [heptane] + NC1CCCCC1?
mass density ([2]; 288.15 K, x2 = 0): 687.954 ± 0.23 kg/m3; mass density ([2]; 293.15 K, x2 = 0): 683.733 ± 0.23 kg/m3; mass density ([2]; 298.15 K, x2 = 0): 679.494 ± 0.23 kg/m3; mass density ([2]; 303.15 K, x2 = 0): 675.229 ± 0.24 kg/m3; mass density ([2]; 308.15 K, x2 = 0): 670.941 ± 0.24 kg/m3; mass density ([2]; 313.15 K, x2 = 0): 666.621 ± 0.24 kg/m3; mass density ([2]; 318.15 K, x2 = 0): 662.273 ± 0.24 kg/m3; mass density ([2]; 323.15 K, x2 = 0): 657.896 ± 0.24 kg/m3
